# Reference: US20190343908A1, “Therapeutic Combination for the Treatment of Cancer” (Nerium Biotechnology Inc., priority 2011, published 2019)
# Legend:
# [1] = test system: MDA-MB 231 (human breast cancer); experiment: Sulforhodamine B viability assay, MDA-MB 231; format: cell-based; conditions: for SRB 24 h / SRB 48 h / SRB 72 h: Run 3 average
# Source text: (§1) Three different viability assays were chosen to complement each other and yielded results dependent on concentration and cell line: the Methyl Tetrazolium dye assay, the Sulforhodamine B fluorescent dye assay, and the Crystal Violet dye assay.
# (§2) The Sulforhodamine B and Crystal Violet assays provide information about protein and were used to complement the Methyl-Tetrazolium dye assay. […] It is used for the quantification of cellular proteins of cultured cells. The assay using Crystal Violet, a dye that binds electrostatically to proteins and stains DNA, provides a reliable, simple assay for measuring viability of cells.
# (§3) The Methyl Tetrazolium, Sulforhodamine B, and Crystal Violet assays were used to assess cell viabilities. The incubation times were 24 hours, 48 hours, and 72 hours. The Nerium oleander extract Anvirzel™ (a hot water extract of oleander obtained from Salud Integral, Honduras) was tested in concentrations ranging from 0.01 ng/mL to 10 ng/mL.
# (§4) Cells were detached by trypsinization (Trypsin-0.25% EDTA, Invitrogen, 25200-072) during the logarithmic phase of culture growth and plated in 96-well plates (18.000 cells/well) (Corning, Costar 359) in a final volume of 200 μl of medium per well. […] The absorbance was measured after 24 hours, 48 hours, and 72 hours of incubation.
# (§5) For the Sulforhodamine B assay, 96-well plates were fixed by 10% trichloroacetic acid (Fluka, 91228) and were incubated at 4° C. for 1 hour. Afterwards, plates were rinsed with water and cells were stained with 0.4% Sulforhodamine B (Sigma, 341738), dissolved in 1% acetic acid (Carlo Ebra, 401422) for 15 minutes at room temperature (RT). The unbound stain was washed twice with 1% acetic acid. Finally, 10 mM Tris Buffer pH 10.5 (Sigma, T6791) was added to dissolve the dye.
# (§6) The optical density of each plate was measured on a μQuant spectrophotometer and the data were analyzed with Gen5 software (μQuant Biomolecular Spectrophotometer MQX200 and Gen5™ Microplate Data Collection & Analysis software, BioTek® Instruments. Inc, April 2008). Absorbance was measured at 570 nm for all assays and a second wavelength was measured in order to subtract noise. For the Methyl-Tetrazolium assay this second wavelength was 630 nm and for the Sulforhodamine B and Crystal Violet assays it was 690 nm.
# [2] = test system: A375 melanoma cancer cell line; experiment: Sulforhodamine B viability assay, A375; format: cell-based, human; conditions: for ABSORBANCE: 0.1 μg/mL cisplatin; for Average absorbance, SRB 24 h / Average absorbance, SRB 48 h / Average absorbance, SRB 72 h: A375 Run 1
# Source text: as §1, §2, §3, §4, §5, §6
# [3] = test system: HCT-15 (colorectal cancer); experiment: Sulforhodamine B viability assay, HCT-15; format: cell-based, human; design: key to SRB Average: absorbance (optical density) at 570 nm, second wavelength subtracted; conditions: for SRB Average 24 h / SRB Average 48 h / SRB Average 72 h: HCT-15, Run 1
# Source text: as §1, §2, §3, §4, §5, §6
smiles,measurement,setting,value
N.N.[Cl][Pt][Cl] [cisplatin],SRB 24 h Average,"[1]; Run 1, 0.1 μg/ml CDDP",1.792
same,SRB 48 h Average,"[1]; Run 1, 0.1 μg/ml CDDP",2.678
same,SRB 72 h Average,"[1]; Run 1, 0.1 μg/ml CDDP",2.873
same,SRB 24 h Average,"[1]; Run 1, 1 μg/ml CDDP",1.395
same,SRB 48 h Average,"[1]; Run 1, 1 μg/ml CDDP",2.254
same,SRB 72 h Average,"[1]; Run 1, 1 μg/ml CDDP",2.928
same,SRB 24 h Average,"[1]; Run 1, 10 μg/ml CDDP",1.785
same,SRB 48 h Average,"[1]; Run 1, 10 μg/ml CDDP",2.489
same,SRB 72 h Average,"[1]; Run 1, 10 μg/ml CDDP",2.962
same,SRB 24 h Average,"[1]; Run 1, 100 μg/ml CDDP",1.752
same,SRB 48 h Average,"[1]; Run 1, 100 μg/ml CDDP",2.457
same,SRB 72 h Average,"[1]; Run 1, 100 μg/ml CDDP",2.852
same,SRB 24 h Average,"[1]; Run 2, 0.1 μg/ml CDDP",1.576
same,SRB 48 h Average,"[1]; Run 2, 0.1 μg/ml CDDP",1.83
same,SRB 72 h Average,"[1]; Run 2, 0.1 μg/ml CDDP",2.1
same,SRB 24 h Average,"[1]; Run 2, 1 μg/ml CDDP",1.27
same,SRB 48 h Average,"[1]; Run 2, 1 μg/ml CDDP",1.162
same,SRB 72 h Average,"[1]; Run 2, 1 μg/ml CDDP",0.883
same,SRB 24 h Average,"[1]; Run 2, 10 μg/ml CDDP",1.598
same,SRB 48 h Average,"[1]; Run 2, 10 μg/ml CDDP",1.867
same,SRB 72 h Average,"[1]; Run 2, 10 μg/ml CDDP",1.755
same,SRB 24 h Average,"[1]; Run 2, 100 μg/ml CDDP",1.509
same,SRB 48 h Average,"[1]; Run 2, 100 μg/ml CDDP",1.048
same,SRB 72 h Average,"[1]; Run 2, 100 μg/ml CDDP",1.004
same,SRB 24 h,[1]; 0.1 μg/ml CDDP,2.643
same,SRB 48 h,[1]; 0.1 μg/ml CDDP,2.742
same,SRB 72 h,[1]; 0.1 μg/ml CDDP,2.87
same,SRB 24 h,[1]; 1 μg/ml CDDP,1.382
same,SRB 48 h,[1]; 1 μg/ml CDDP,1.537
same,SRB 72 h,[1]; 1 μg/ml CDDP,2.07
same,SRB 24 h,[1]; 10 μg/ml CDDP,2.134
same,SRB 48 h,[1]; 10 μg/ml CDDP,2.364
same,SRB 72 h,[1]; 10 μg/ml CDDP,2.593
same,SRB 24 h,[1]; 100 μg/ml CDDP,1.141
same,SRB 48 h,[1]; 100 μg/ml CDDP,1.464
same,SRB 72 h,[1]; 100 μg/ml CDDP,1.493
same,ABSORBANCE,"[2]; A375, 48 h",2.421
same,ABSORBANCE,"[2]; A375, 72 h",2.487
same,"Average absorbance, SRB 24 h",[2]; 0.1 μg/ml CDDP,2.072
same,"Average absorbance, SRB 48 h",[2]; 0.1 μg/ml CDDP,2.421
same,"Average absorbance, SRB 72 h",[2]; 0.1 μg/ml CDDP,2.487
same,"Average absorbance, SRB 24 h",[2]; 1 μg/ml CDDP,1.579
same,"Average absorbance, SRB 48 h",[2]; 1 μg/ml CDDP,1.987
same,"Average absorbance, SRB 72 h",[2]; 1 μg/ml CDDP,2.256
same,"Average absorbance, SRB 24 h",[2]; 10 μg/ml CDDP,1.117
same,"Average absorbance, SRB 48 h",[2]; 10 μg/ml CDDP,1.678
same,"Average absorbance, SRB 72 h",[2]; 10 μg/ml CDDP,1.913
same,"Average absorbance, SRB 24 h",[2]; 100 μg/ml CDDP,1.283
same,"Average absorbance, SRB 48 h",[2]; 100 μg/ml CDDP,1.782
same,"Average absorbance, SRB 72 h",[2]; 100 μg/ml CDDP,1.319
same,Average absorbance SRB,"[2]; A375 Run 2, 24 h, 0.1 μg/ml CDDP",2.189
same,Average absorbance SRB,"[2]; A375 Run 2, 24 h, 1 μg/ml CDDP",1.916
same,Average absorbance SRB,"[2]; A375 Run 2, 24 h, 10 μg/ml CDDP",1.827
same,Average absorbance SRB,"[2]; A375 Run 2, 24 h, 100 μg/ml CDDP",1.939
same,Average absorbance SRB,"[2]; A375 Run 2, 48 h, 0.1 μg/ml CDDP",2.571
same,Average absorbance SRB,"[2]; A375 Run 2, 48 h, 1 μg/ml CDDP",1.366
same,Average absorbance SRB,"[2]; A375 Run 2, 48 h, 10 μg/ml CDDP",1.265
same,Average absorbance SRB,"[2]; A375 Run 2, 48 h, 100 μg/ml CDDP",1.293
same,Average absorbance SRB,"[2]; A375 Run 2, 72 h, 0.1 μg/ml CDDP",2.634
same,Average absorbance SRB,"[2]; A375 Run 2, 72 h, 1 μg/ml CDDP",2.085
same,Average absorbance SRB,"[2]; A375 Run 2, 72 h, 10 μg/ml CDDP",1.617
same,Average absorbance SRB,"[2]; A375 Run 2, 72 h, 100 μg/ml CDDP",1.491
same,Average absorbance SRB,"[2]; A375 Run 3, 24 h, 0.1 μg/ml CDDP",1.597
same,Average absorbance SRB,"[2]; A375 Run 3, 24 h, 1 μg/ml CDDP",1.126
same,Average absorbance SRB,"[2]; A375 Run 3, 24 h, 10 μg/ml CDDP",1.294
same,Average absorbance SRB,"[2]; A375 Run 3, 24 h, 100 μg/ml CDDP",0.982
same,Average absorbance SRB,"[2]; A375 Run 3, 48 h, 0.1 μg/ml CDDP",2.175
same,Average absorbance SRB,"[2]; A375 Run 3, 48 h, 1 μg/ml CDDP",1.83
same,Average absorbance SRB,"[2]; A375 Run 3, 48 h, 10 μg/ml CDDP",1.586
same,Average absorbance SRB,"[2]; A375 Run 3, 48 h, 100 μg/ml CDDP",1.572
same,Average absorbance SRB,"[2]; A375 Run 3, 72 h, 0.1 μg/ml CDDP",2.184
same,Average absorbance SRB,"[2]; A375 Run 3, 72 h, 1 μg/ml CDDP",1.491
same,Average absorbance SRB,"[2]; A375 Run 3, 72 h, 10 μg/ml CDDP",1.571
same,Average absorbance SRB,"[2]; A375 Run 3, 72 h, 100 μg/ml CDDP",1.271
same,SRB Average 24 h,[3]; 0.1 μg/ml CDDP,2.592
same,SRB Average 48 h,[3]; 0.1 μg/ml CDDP,2.747
same,SRB Average 72 h,[3]; 0.1 μg/ml CDDP,2.792
same,SRB Average 24 h,[3]; 1 μg/ml CDDP,1.974
same,SRB Average 48 h,[3]; 1 μg/ml CDDP,2.397
same,SRB Average 72 h,[3]; 1 μg/ml CDDP,1.697
same,SRB Average 24 h,[3]; 10 μg/ml CDDP,1.657
same,SRB Average 48 h,[3]; 10 μg/ml CDDP,2.449
same,SRB Average 72 h,[3]; 10 μg/ml CDDP,1.71
same,SRB Average 24 h,[3]; 100 μg/ml CDDP,1.854
same,SRB Average 48 h,[3]; 100 μg/ml CDDP,1.937
same,SRB Average 72 h,[3]; 100 μg/ml CDDP,1.634
same,SRB Average,"[3]; Run 2, 24 h, 0.1 μg/ml CDDP",2.271
same,SRB Average,"[3]; Run 2, 24 h, 1 μg/ml CDDP",1.762
same,SRB Average,"[3]; Run 2, 24 h, 10 μg/ml CDDP",2.09
same,SRB Average,"[3]; Run 2, 24 h, 100 μg/ml CDDP",1.78
same,SRB Average,"[3]; Run 2, 48 h, 0.1 μg/ml CDDP",2.54
same,SRB Average,"[3]; Run 2, 48 h, 1 μg/ml CDDP",2.198
same,SRB Average,"[3]; Run 2, 48 h, 10 μg/ml CDDP",2.456
same,SRB Average,"[3]; Run 2, 48 h, 100 μg/ml CDDP",2.169
same,SRB Average,"[3]; Run 2, 72 h, 0.1 μg/ml CDDP",2.797
same,SRB Average,"[3]; Run 2, 72 h, 1 μg/ml CDDP",2.068
same,SRB Average,"[3]; Run 2, 72 h, 10 μg/ml CDDP",1.85
same,SRB Average,"[3]; Run 2, 72 h, 100 μg/ml CDDP",1.585
same,SRB Average,"[3]; Run 3, 24 h, 0.1 μg/ml CDDP",2.578
same,SRB Average,"[3]; Run 3, 24 h, 1 μg/ml CDDP",1.713
same,SRB Average,"[3]; Run 3, 24 h, 10 μg/ml CDDP",1.941
same,SRB Average,"[3]; Run 3, 24 h, 100 μg/ml CDDP",1.254
same,SRB Average,"[3]; Run 3, 48 h, 0.1 μg/ml CDDP",2.768
same,SRB Average,"[3]; Run 3, 48 h, 1 μg/ml CDDP",1.845
same,SRB Average,"[3]; Run 3, 48 h, 10 μg/ml CDDP",2.104
same,SRB Average,"[3]; Run 3, 48 h, 100 μg/ml CDDP",1.77
same,SRB Average,"[3]; Run 3, 72 h, 0.1 μg/ml CDDP",2.96
same,SRB Average,"[3]; Run 3, 72 h, 1 μg/ml CDDP",1.752
same,SRB Average,"[3]; Run 3, 72 h, 10 μg/ml CDDP",2.063
same,SRB Average,"[3]; Run 3, 72 h, 100 μg/ml CDDP",1.935
